Measured values from publication PMC7901654, “Bioisosteric Discovery of NPA101.3, a Second-Generation RET/VEGFR2 Inhibitor Optimized for Single-Agent Polypharmacology” (Journal of Medicinal Chemistry, 2020).

How the values were obtained:
Experiment in all cases: KinomeScan panel screen
Type in all cases: binding
[1] = target: T1, ACVR1 (Homo sapiens, UniProt Q04771); settings: ACVR1, 100 nM; read-out: Percent Control
T1 construct: purchased DiscoveRx KINOMEscan (TRKA and CSF1R IC50 enzymes from Invitrogen)
Description: (§1) In addition, NPA101.3, at a concentration of 100 nM, was subjected to a kinome scan against a 96-kinase panel representing major kinome clusters (Table S2). The compound featured good selectivity, displaying strong binding activity (>90% bound) for only seven additional kinases [CSF1R (colony stimulating factor 1 receptor), FRK (fyn-related Src family tyrosine kinase), HCK (HCK proto-oncogene, Src family tyrosine kinase), LYN (lyn proto-oncogene, Src family tyrosine kinase), MKNK2 (MAPK-interacting serine/threonine kinase 2), TRKA (neurotrophic receptor tyrosine kinase 1), and TRKC (neurotrophic receptor tyrosine kinase 3)] and weak binding (>10–35% bound) for six other kinases (Table S2 and Figure S2). It is important to note that the measurement of binding affinity, which is based on control ligand displacement (Kd), is more sensitive than the in vitro kinase assay. Among the seven kinases with >90% binding, TRKA and CSF1R were selected for an in vitro kinase assay.
(§2) Supplementary Table S2: NPA101.3 KinomeScan Panel screen.
(§3) NPA101.3 was screened at a single concentration of 100 nM. Hits values lower than
(§4) 10% of control were considered strongly positive.
(§5) DiscoveRx Gene Entrez Gene Percent Compound
(§6) Symbol Symbol Control Concentration

[2] = target: T2, ASK1 (Homo sapiens, UniProt Q99683); settings: ASK1, 100 nM; read-out: Percent Control
T2 construct: purchased DiscoveRx KINOMEscan (TRKA and CSF1R IC50 enzymes from Invitrogen)
Description: as §1, §2, §3, §4, §5, §6

[3] = target: T3, BRAF (Homo sapiens, UniProt P15056); settings: 100 nM, read-out: Percent Control
T3 construct: purchased DiscoveRx KINOMEscan (TRKA and CSF1R IC50 enzymes from Invitrogen)
Description: as §1, §2, §3, §4, §5, §6

[4] = target: T4, BUB1 (Homo sapiens, UniProt O43683); settings: BUB1, 100 nM; read-out: Percent Control
T4 construct: purchased DiscoveRx KINOMEscan (TRKA and CSF1R IC50 enzymes from Invitrogen)
Description: as §1, §2, §3, §4, §5, §6

[5] = target: T5, CDK7 (Homo sapiens, UniProt P50613); settings: CDK7, 100 nM; read-out: Percent Control
T5 construct: purchased DiscoveRx KINOMEscan (TRKA and CSF1R IC50 enzymes from Invitrogen)
T5 sequence (P50613 whole entry): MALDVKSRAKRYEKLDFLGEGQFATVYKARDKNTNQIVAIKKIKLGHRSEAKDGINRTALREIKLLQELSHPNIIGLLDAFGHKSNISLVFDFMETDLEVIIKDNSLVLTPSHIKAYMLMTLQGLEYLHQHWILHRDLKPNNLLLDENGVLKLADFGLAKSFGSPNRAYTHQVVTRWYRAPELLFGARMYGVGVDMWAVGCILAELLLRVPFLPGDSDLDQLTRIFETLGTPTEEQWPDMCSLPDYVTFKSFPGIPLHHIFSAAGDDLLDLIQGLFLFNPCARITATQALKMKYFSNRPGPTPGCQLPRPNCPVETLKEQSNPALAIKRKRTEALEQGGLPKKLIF
Description: as §1, §2, §3, §4, §5, §6

[6] = target: T6, CTK (Homo sapiens, UniProt P42679); settings: 100 nM, read-out: Percent Control
T6 construct: purchased DiscoveRx KINOMEscan (TRKA and CSF1R IC50 enzymes from Invitrogen)
Description: as §1, §2, §3, §4, §5, §6

[7] = target: T7, DYRK1A (Homo sapiens, UniProt Q13627); settings: 100 nM, read-out: Percent Control
T7 construct: purchased DiscoveRx KINOMEscan (TRKA and CSF1R IC50 enzymes from Invitrogen)
Description: as §1, §2, §3, §4, §5, §6

[8] = target: T8, EGFR (Homo sapiens, UniProt P00533); settings: 100 nM, read-out: Percent Control
T8 construct: purchased DiscoveRx KINOMEscan (TRKA and CSF1R IC50 enzymes from Invitrogen)
T8 sequence (P00533 25-1210): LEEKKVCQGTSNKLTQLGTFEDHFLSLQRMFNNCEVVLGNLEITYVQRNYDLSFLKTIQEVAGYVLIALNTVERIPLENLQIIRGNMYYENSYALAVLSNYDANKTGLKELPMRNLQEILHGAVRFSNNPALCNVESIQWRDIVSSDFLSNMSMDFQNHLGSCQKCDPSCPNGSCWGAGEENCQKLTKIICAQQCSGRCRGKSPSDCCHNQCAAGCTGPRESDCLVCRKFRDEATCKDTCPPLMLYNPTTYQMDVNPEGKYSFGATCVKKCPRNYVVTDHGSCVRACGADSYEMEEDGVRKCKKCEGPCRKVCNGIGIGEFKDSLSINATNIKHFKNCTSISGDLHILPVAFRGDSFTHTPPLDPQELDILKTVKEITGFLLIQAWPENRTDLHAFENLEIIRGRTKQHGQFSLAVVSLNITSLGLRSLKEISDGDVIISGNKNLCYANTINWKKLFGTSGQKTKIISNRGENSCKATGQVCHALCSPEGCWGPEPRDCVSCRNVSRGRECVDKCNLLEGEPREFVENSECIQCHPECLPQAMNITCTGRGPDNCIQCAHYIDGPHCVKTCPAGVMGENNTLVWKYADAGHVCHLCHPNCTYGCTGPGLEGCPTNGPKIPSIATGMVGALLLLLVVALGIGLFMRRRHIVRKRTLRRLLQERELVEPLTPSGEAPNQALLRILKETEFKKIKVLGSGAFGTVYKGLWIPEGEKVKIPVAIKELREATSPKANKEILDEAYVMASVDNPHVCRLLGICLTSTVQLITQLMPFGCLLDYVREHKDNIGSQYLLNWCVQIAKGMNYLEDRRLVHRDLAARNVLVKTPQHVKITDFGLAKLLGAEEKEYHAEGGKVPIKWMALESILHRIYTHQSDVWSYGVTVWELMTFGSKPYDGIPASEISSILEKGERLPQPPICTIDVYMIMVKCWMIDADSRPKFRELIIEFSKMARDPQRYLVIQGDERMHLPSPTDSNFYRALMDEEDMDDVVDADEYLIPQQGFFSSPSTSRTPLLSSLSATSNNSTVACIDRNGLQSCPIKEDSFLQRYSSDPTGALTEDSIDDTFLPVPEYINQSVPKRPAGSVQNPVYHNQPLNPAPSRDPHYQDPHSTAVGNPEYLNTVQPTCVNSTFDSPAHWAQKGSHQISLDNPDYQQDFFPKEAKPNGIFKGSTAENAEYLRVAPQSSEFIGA
Description: as §1, §2, §3, §4, §5, §6

[9] = target: T9, FER (Homo sapiens, UniProt P16591); settings: 100 nM, read-out: Percent Control
T9 construct: purchased DiscoveRx KINOMEscan (TRKA and CSF1R IC50 enzymes from Invitrogen)
Description: as §1, §2, §3, §4, §5, §6

[10] = target: T10, FGFR3 (Homo sapiens, UniProt P22607); settings: FGFR3, 100 nM; read-out: Percent Control
T10 construct: purchased DiscoveRx KINOMEscan (TRKA and CSF1R IC50 enzymes from Invitrogen)
Description: as §1, §2, §3, §4, §5, §6

[11] = target: T11, FYN (Homo sapiens, UniProt P06241); settings: 100 nM, read-out: Percent Control
T11 construct: purchased DiscoveRx KINOMEscan (TRKA and CSF1R IC50 enzymes from Invitrogen)
Description: as §1, §2, §3, §4, §5, §6

[12] = target: T12, GAK (Homo sapiens, UniProt O14976); settings: 100 nM, read-out: Percent Control
T12 construct: purchased DiscoveRx KINOMEscan (TRKA and CSF1R IC50 enzymes from Invitrogen)
Description: as §1, §2, §3, §4, §5, §6

[13] = target: T13, GSK3B (Homo sapiens, UniProt P49841); settings: 100 nM, read-out: Percent Control
T13 construct: purchased DiscoveRx KINOMEscan (TRKA and CSF1R IC50 enzymes from Invitrogen)
T13 sequence (P49841 whole entry): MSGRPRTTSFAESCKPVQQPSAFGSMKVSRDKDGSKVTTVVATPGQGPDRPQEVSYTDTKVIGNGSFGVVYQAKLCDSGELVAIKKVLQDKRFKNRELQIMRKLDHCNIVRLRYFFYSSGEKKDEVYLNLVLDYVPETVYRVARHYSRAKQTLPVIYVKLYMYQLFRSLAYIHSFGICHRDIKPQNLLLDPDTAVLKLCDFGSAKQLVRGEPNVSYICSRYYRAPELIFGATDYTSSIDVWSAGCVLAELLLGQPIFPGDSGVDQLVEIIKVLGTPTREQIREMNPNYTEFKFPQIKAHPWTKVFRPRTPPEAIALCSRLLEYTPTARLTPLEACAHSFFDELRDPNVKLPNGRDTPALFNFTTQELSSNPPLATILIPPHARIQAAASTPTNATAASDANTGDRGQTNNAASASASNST
Description: as §1, §2, §3, §4, §5, §6

[14] = target: T14, HCK (Homo sapiens, UniProt P08631); settings: 100 nM
T14 construct: purchased DiscoveRx KINOMEscan (TRKA and CSF1R IC50 enzymes from Invitrogen)
T14 sequence (P08631 whole entry): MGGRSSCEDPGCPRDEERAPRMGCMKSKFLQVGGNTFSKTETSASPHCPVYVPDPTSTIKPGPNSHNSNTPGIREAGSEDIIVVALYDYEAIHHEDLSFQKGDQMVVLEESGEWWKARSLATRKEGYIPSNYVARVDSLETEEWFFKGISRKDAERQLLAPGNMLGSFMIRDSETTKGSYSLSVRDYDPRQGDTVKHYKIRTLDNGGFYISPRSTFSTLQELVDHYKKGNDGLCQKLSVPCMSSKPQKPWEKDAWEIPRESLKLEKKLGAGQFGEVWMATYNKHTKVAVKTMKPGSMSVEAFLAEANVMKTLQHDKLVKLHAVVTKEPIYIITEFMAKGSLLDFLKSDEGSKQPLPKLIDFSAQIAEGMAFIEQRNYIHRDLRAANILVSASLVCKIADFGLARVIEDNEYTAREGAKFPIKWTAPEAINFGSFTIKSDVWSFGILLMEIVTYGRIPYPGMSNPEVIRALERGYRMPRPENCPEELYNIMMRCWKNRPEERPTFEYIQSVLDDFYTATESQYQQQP
Description: as §1, §2, §3, §4, §5, §6

[15] = target: T15, JAK1(JH2domain-pseudokinase) (Homo sapiens, UniProt P23458); settings: 100 nM, read-out: Percent Control
T15 construct: JAK1(JH2domain-pseudokinase); purchased DiscoveRx KINOMEscan (TRKA and CSF1R IC50 enzymes from Invitrogen)
Description: as §1, §2, §3, §4, §5, §6

[16] = target: T16, LTK (Homo sapiens, UniProt P29376); settings: 100 nM, read-out: Percent Control
T16 construct: purchased DiscoveRx KINOMEscan (TRKA and CSF1R IC50 enzymes from Invitrogen)
Description: as §1, §2, §3, §4, §5, §6

[17] = target: T17, LYN (Homo sapiens, UniProt P07948); settings: 100 nM
T17 construct: purchased DiscoveRx KINOMEscan (TRKA and CSF1R IC50 enzymes from Invitrogen)
T17 sequence (P07948 whole entry): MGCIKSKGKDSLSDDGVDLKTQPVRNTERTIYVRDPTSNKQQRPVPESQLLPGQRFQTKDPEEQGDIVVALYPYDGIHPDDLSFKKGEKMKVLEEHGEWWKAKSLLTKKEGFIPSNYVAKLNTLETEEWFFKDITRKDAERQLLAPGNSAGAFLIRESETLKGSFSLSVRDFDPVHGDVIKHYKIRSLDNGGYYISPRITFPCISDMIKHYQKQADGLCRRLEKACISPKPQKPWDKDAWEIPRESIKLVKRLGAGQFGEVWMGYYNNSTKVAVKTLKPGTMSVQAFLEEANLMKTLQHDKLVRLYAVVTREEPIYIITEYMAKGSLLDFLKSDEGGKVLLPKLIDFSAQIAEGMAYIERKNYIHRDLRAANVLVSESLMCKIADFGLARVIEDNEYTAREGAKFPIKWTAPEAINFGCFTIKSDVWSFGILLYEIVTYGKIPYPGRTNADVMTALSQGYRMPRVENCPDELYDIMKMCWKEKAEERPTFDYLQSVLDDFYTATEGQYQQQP
Description: as §1, §2, §3, §4, §5, §6

[18] = target: T18, MAP4K3 (Homo sapiens, UniProt Q8IVH8); settings: MAP4K3, 100 nM; read-out: Percent Control
T18 construct: purchased DiscoveRx KINOMEscan (TRKA and CSF1R IC50 enzymes from Invitrogen)
Description: as §1, §2, §3, §4, §5, §6

[19] = target: T19, MEK1 (Homo sapiens, UniProt Q02750); settings: MEK1, 100 nM; read-out: Percent Control
T19 construct: purchased DiscoveRx KINOMEscan (TRKA and CSF1R IC50 enzymes from Invitrogen)
Description: as §1, §2, §3, §4, §5, §6

[20] = target: T20, MET (Homo sapiens, UniProt P08581); settings: 100 nM, read-out: Percent Control
T20 construct: purchased DiscoveRx KINOMEscan (TRKA and CSF1R IC50 enzymes from Invitrogen)
Description: as §1, §2, §3, §4, §5, §6

[21] = target: T21, PCTK1 (Homo sapiens, UniProt Q00536); settings: PCTK1, 100 nM; read-out: Percent Control
T21 construct: purchased DiscoveRx KINOMEscan (TRKA and CSF1R IC50 enzymes from Invitrogen)
Description: as §1, §2, §3, §4, §5, §6

[22] = target: T22, PKAC-beta (Homo sapiens, UniProt P22694); settings: 100 nM, read-out: Percent Control
T22 construct: purchased DiscoveRx KINOMEscan (TRKA and CSF1R IC50 enzymes from Invitrogen)
Description: as §1, §2, §3, §4, §5, §6

[23] = target: T23, PYK2 (Homo sapiens, UniProt Q14289); settings: PYK2, 100 nM; read-out: Percent Control
T23 construct: purchased DiscoveRx KINOMEscan (TRKA and CSF1R IC50 enzymes from Invitrogen)
T23 sequence (Q14289 whole entry): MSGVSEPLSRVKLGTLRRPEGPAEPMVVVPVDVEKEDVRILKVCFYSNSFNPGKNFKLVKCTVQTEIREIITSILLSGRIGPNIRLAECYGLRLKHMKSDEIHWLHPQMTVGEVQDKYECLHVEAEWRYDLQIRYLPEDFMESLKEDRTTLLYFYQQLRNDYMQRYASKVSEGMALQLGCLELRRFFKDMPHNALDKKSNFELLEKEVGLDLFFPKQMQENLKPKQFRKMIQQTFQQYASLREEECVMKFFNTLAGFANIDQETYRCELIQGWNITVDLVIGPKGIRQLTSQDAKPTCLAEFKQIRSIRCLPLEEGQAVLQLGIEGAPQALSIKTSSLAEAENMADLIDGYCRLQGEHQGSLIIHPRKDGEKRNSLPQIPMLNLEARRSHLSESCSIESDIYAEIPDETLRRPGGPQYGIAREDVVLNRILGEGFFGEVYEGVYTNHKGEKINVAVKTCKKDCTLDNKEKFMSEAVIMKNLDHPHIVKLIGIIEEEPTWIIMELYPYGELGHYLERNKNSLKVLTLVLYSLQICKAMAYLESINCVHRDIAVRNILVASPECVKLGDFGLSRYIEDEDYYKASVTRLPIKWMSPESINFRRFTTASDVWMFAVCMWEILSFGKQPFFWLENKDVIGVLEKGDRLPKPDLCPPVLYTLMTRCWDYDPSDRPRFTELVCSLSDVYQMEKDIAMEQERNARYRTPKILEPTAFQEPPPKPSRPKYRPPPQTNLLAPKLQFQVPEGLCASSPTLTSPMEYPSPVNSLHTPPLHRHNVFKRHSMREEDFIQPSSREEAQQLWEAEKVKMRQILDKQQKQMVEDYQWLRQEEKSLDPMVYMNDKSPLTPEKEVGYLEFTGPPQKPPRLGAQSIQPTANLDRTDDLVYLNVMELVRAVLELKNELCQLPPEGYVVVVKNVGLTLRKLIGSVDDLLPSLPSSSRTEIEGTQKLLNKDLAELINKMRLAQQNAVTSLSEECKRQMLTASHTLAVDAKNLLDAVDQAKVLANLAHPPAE
Description: as §1, §2, §3, §4, §5, §6

[24] = target: T24, RIPK4 (Homo sapiens, UniProt P57078); settings: RIPK4, 100 nM; read-out: Percent Control
T24 construct: purchased DiscoveRx KINOMEscan (TRKA and CSF1R IC50 enzymes from Invitrogen)
Description: as §1, §2, §3, §4, §5, §6

[25] = target: T25, SYK (Homo sapiens, UniProt P43405); settings: 100 nM, read-out: Percent Control
T25 construct: purchased DiscoveRx KINOMEscan (TRKA and CSF1R IC50 enzymes from Invitrogen)
Description: as §1, §2, §3, §4, §5, §6

[26] = target: T26, TLK1 (Homo sapiens, UniProt Q9UKI8); settings: TLK1, 100 nM; read-out: Percent Control
T26 construct: purchased DiscoveRx KINOMEscan (TRKA and CSF1R IC50 enzymes from Invitrogen)
Description: as §1, §2, §3, §4, §5, §6

[27] = target: T27, TRKA (Homo sapiens, UniProt P04629); settings: 100 nM
T27 construct: purchased Invitrogen
T27 sequence (P04629 33-796): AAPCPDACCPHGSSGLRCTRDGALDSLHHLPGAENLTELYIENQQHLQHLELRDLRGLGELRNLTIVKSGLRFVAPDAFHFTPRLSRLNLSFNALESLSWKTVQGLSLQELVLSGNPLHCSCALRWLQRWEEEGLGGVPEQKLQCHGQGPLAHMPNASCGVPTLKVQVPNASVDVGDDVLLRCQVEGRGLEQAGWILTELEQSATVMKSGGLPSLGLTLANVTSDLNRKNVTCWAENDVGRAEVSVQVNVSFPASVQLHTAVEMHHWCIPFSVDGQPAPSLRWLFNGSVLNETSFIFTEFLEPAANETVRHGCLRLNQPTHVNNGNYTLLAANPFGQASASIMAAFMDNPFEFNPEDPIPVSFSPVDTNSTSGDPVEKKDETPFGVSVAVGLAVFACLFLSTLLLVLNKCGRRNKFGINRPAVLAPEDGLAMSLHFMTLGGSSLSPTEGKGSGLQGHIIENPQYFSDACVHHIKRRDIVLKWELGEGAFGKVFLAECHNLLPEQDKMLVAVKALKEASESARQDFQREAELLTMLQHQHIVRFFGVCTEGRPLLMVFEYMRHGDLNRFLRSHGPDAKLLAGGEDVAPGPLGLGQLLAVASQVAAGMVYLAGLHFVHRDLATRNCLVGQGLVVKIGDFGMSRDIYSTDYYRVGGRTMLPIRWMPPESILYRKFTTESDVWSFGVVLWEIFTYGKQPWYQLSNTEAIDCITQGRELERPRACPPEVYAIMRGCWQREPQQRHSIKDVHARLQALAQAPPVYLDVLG
Description: as §1, §2, §3, §4, §5, §6

[28] = target: T28, TTK (Homo sapiens, UniProt P33981); settings: 100 nM, read-out: Percent Control
T28 construct: purchased DiscoverX (outsourced KINOMEscan)
Description: as §1, §2, §3, §4, §5, §6

[29] = target: T29, ULK1 (Homo sapiens, UniProt O75385); settings: ULK1, 100 nM; read-out: Percent Control
T29 construct: purchased DiscoverX (outsourced KINOMEscan)
Description: as §1, §2, §3, §4, §5, §6

[30] = target: T30, ULK2 (Homo sapiens, UniProt Q8IYT8); settings: ULK2, 100 nM; read-out: Percent Control
T30 construct: purchased DiscoverX (outsourced KINOMEscan)
Description: as §1, §2, §3, §4, §5, §6

[31] = target: T31, YANK2 (Homo sapiens, UniProt Q9NY57); settings: YANK2, 100 nM; read-out: Percent Control
T31 construct: purchased DiscoverX (outsourced KINOMEscan)
Description: as §1, §2, §3, §4, §5, §6

Q: For CC(C)(C)c1cc(NC(=O)Cc2ccc(-n3cnc4cc(-c5ccc(S(C)(=O)=O)cc5)ccc43)cc2)no1 [NPA101.3], which remaining binding at 0.1 µM [1] is on record?
A: Its remaining binding at 0.1 µM is 92%.

Q: And the remaining binding at 0.1 µM [2]?
A: The remaining binding at 0.1 µM was 95%.

Q: What about the remaining binding at 0.1 µM [3] of the same molecule?
A: The remaining binding at 0.1 µM was 98%.

Q: What about the remaining binding at 0.1 µM [4] of the same molecule?
A: Its remaining binding at 0.1 µM is 100%.

Q: And the remaining binding at 0.1 µM [5]?
A: The remaining binding at 0.1 µM was 28%.

Q: And the remaining binding at 0.1 µM [6]?
A: Its remaining binding at 0.1 µM is 56%.

Q: What about the remaining binding at 0.1 µM [7] of the same molecule?
A: The remaining binding at 0.1 µM was 95%.

Q: And the remaining binding at 0.1 µM [8]?
A: Its remaining binding at 0.1 µM is 96%.

Q: What about the remaining binding at 0.1 µM [9] of the same molecule?
A: The remaining binding at 0.1 µM was 96%.

Q: What about the remaining binding at 0.1 µM [10] of the same molecule?
A: The remaining binding at 0.1 µM was 100%.

Q: And the remaining binding at 0.1 µM [11]?
A: The remaining binding at 0.1 µM was 27%.

Q: And the remaining binding at 0.1 µM [12]?
A: The remaining binding at 0.1 µM was 42%.

Q: And the remaining binding at 0.1 µM [13]?
A: The remaining binding at 0.1 µM was 100%.

Q: And the “binding (% bound)” value [14]?
A: The value was > 90 % bound.

Q: And the remaining binding at 0.1 µM ([14]; HCK, read-out: Percent Control)?
A: Its remaining binding at 0.1 µM is 6.5%.

Q: And the remaining binding at 0.1 µM [15]?
A: Its remaining binding at 0.1 µM is 93%.

Q: What about the remaining binding at 0.1 µM [16] of the same molecule?
A: Its remaining binding at 0.1 µM is 61%.

Q: What about the “binding (% bound)” value [17] of the same molecule?
A: The value was > 90 % bound.

Q: And the remaining binding at 0.1 µM ([17]; LYN, read-out: Percent Control)?
A: The remaining binding at 0.1 µM was 2.8%.

Q: What about the remaining binding at 0.1 µM [18] of the same molecule?
A: Its remaining binding at 0.1 µM is 95%.

Q: What about the remaining binding at 0.1 µM [19] of the same molecule?
A: The remaining binding at 0.1 µM was 92%.

Q: What about the remaining binding at 0.1 µM [20] of the same molecule?
A: Its remaining binding at 0.1 µM is 79%.

Q: And the remaining binding at 0.1 µM [21]?
A: Its remaining binding at 0.1 µM is 89%.

Q: What about the remaining binding at 0.1 µM [22] of the same molecule?
A: Its remaining binding at 0.1 µM is 82%.

Q: What about the remaining binding at 0.1 µM [23] of the same molecule?
A: The remaining binding at 0.1 µM was 95%.

Q: What about the remaining binding at 0.1 µM [24] of the same molecule?
A: The remaining binding at 0.1 µM was 100%.

Q: What about the remaining binding at 0.1 µM [25] of the same molecule?
A: Its remaining binding at 0.1 µM is 100%.

Q: What about the remaining binding at 0.1 µM [26] of the same molecule?
A: Its remaining binding at 0.1 µM is 100%.

Q: And the “binding (% bound)” value [27]?
A: Its value is > 90 % bound.

Q: And the remaining binding at 0.1 µM ([27]; TRKA, read-out: Percent Control)?
A: Its remaining binding at 0.1 µM is 1.3%.

Q: And the remaining binding at 0.1 µM [28]?
A: Its remaining binding at 0.1 µM is 66%.

Q: And the remaining binding at 0.1 µM [29]?
A: Its remaining binding at 0.1 µM is 100%.

Q: What about the remaining binding at 0.1 µM [30] of the same molecule?
A: Its remaining binding at 0.1 µM is 100%.

Q: What about the remaining binding at 0.1 µM [31] of the same molecule?
A: The remaining binding at 0.1 µM was 98%.
